The text below walks through data of paper PMC6934184, “Selective DNA-PKcs inhibition extends the therapeutic index of localized radiotherapy and chemotherapy” (The Journal of Clinical Investigation, 2019).

This test deals with T1, PRKCH (PKC eta) (Homo sapiens, UniProt P24723).
T1 construct: purchased Thermo Fisher Scientific (Life Technologies) SelectScreen
In words: SelectScreen Z'LYTE. The test is classed as biochemical. Put shortly:
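Percent values come from Thermo SelectScreen profiling of NU5455, combining activity and binding assays. CSF1R was run in Z'LYTE format at Km app ATP, and CAMK1 in Adapta format with ATP listed at 10.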

T1 sequence (P24723 whole entry): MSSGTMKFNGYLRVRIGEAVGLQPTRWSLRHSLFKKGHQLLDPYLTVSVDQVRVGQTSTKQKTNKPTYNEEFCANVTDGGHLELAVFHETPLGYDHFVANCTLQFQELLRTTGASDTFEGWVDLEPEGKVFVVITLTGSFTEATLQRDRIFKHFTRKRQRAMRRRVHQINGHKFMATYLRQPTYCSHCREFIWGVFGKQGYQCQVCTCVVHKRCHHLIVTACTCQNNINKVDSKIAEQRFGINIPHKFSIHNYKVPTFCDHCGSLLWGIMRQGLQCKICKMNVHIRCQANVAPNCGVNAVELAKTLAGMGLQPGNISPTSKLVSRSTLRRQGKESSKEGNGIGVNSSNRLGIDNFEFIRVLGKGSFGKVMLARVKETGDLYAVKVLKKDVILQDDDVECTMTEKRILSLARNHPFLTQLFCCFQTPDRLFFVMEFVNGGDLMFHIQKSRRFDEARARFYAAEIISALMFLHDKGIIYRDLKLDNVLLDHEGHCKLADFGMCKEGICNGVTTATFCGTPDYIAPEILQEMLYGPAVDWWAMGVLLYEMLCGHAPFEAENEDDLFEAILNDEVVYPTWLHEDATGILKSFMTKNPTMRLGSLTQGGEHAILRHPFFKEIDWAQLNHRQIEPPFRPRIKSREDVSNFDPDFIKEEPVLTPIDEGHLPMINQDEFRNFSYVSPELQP

Broadly, the inhibition is the drop in the measured response relative to a control, in per cent. Consider `CN(C(=O)CN1CCOCC1)c1ccc2sc3c(-c4cccc5c(=O)cc(N6CC7CCC(C6)O7)oc45)cccc3c2c1` [NU5455], for which the inhibition at 1 µM is -4.6%.
